The text below walks through data of patent US11186551B2, “Composition of scalable thyrointegrin antagonists with improved retention in tumors” (NanoPharmaceuticals, LLC, priority 2020, dated 2021).

“Also recorded” adds a separate entry of the source.

One series has as its system U87-luc xenografts. The experiment in a line: GBM xenograft efficacy: tumor weight and luminescent signal intensity. It counts as in vivo, Nude mice. Particulars: for Tumor weight after 3 weeks of treatment: control approximately 600 mg; for Luminescent signal intensity after 3 weeks of treatment: control approximately 600,000p/s. Here is the method: The efficacy of these compounds/compositions with respect to GBM tumors will now be described with reference to FIGS. 30-33. The study protocol is as follows: Nude mice having U87-luc xenografts were treated with varying dosages of Compound 2 (fb-PMT) for 3 weeks. Efficacy was determined by tumor weight and luminescent signal intensity compared with a control group. Further, treatment efficacy was also evaluated in comparison with known potential treatment Cilengitide. Efficacy was also determined again after an additional 3 week period with no additional treatment.

The conditions of series [1]: mouse, in vivo, sc, 10 mg/kg.
Protocol: Concentrations are shown as recorded 3 h following administration.
Each group contained 4 mice.
For series [2], the system named is angiogenesis induced by bFGF, VEGF, HGF. The series can be described thus: Anti-angiogenic effect in CAM Models in the presence of growth factors. It counts as in vivo. From the text:
In addition to good initial uptake, the disclosed compounds also have good anti-angiogenic effect. […] Specifically, Compound 2 is effective at reducing the percentage of angiogenesis present in CAM Models, when administered in the presence of the following growth factors: bFGF, VEGF, VEGF+bFGF, and bFGF+VEGF+HGF.
This broad spectrum anti-angiogenic effect is in contrast to existing therapeutic compounds/compositions such as AVASTIN® (bevacizumab).

The conditions of series [3]: cynomolgus monkey, in vivo, sc, 15 mg/kg.
The conditions of series [4]: mouse, in vivo, sc, 10 mg/kg. This is another data set of the same source.
Protocol: Again, a single subcutaneous injection was used in mice. The administered dose was 10 mg/Kg.
Where [5] appears, read: Compound 2 6 mg/kg, Cilengitide 75 mg/kg.
Where [6] appears, read: Compound 2 6 mg/kg, Cilengitide 75 mg/kg, control approximately 750 mg.
Where [7] appears, read: Compound 2 6 mg/kg, Cilengitide 75 mg/kg, control over 800,000p/s.

For `CC(C)[C@H]1C(=O)N[C@@H](CCCN=C(N)N)C(=O)NCC(=O)N[C@@H](CC(=O)O)C(=O)N[C@H](Cc2ccccc2)C(=O)N1C` [Cilengitide, reference compound], in the series with U87-luc xenografts (setting [5]), the “Tumor weight after 3 weeks of treatment” value is listed as “approximately 300 mg” and the “Luminescent signal intensity after 3 weeks of treatment” value is listed as “approximately 300,000 p/s”. Further, in the series on U87-luc xenografts (setting [6]), the “Tumor weight after 3 weeks of treatment followed by 3 weeks without treatment” value is on record as “over 400 mg”. Besides, in the series on U87-luc xenografts (setting [7]), the “Luminescent signal intensity after 3 weeks of treatment followed by 3 weeks without treatment” value was “over 500,000 p/s”.
For the molecule “di-tbutylbenzyl conjugated to triazole tetrac by polyethylene glycol [Compound 4]”, in series [1], the “Average Brain Concentration (ng/g), 3 hour” value was determined as 922 ng/g.
“fluorobenzyl conjugated to triazole tetrac by polyethylene glycol [Compound 2]”: the “Average Brain Concentration (ng/g), 3 hour” value in series [1] came to 228 ng/g. In addition, in series [2] (1.0 μg, growth factors bFGF, VEGF, VEGF+bFGF, bFGF+VEGF+HGF), the “Percentage of angiogenesis in CAM Model” value is “only slightly above baseline; also recorded: inhibition of angiogenesis against all three growth factors, both alone and in combination”. For the same molecule, the “Time of plasma concentration peak” value in series [3] lay in the range of 1 to 4 h. Also, in the series on U87-luc xenografts (setting [5]), the “Tumor weight after 3 weeks of treatment” value is given as “under 50 mg” and the “Luminescent signal intensity after 3 weeks of treatment” value was “negligible levels”. In addition, in the series on U87-luc xenografts (setting [6]), the “Tumor weight after 3 weeks of treatment followed by 3 weeks without treatment” value is recorded as “further reduction”. Moreover, the “Luminescent signal intensity after 3 weeks of treatment followed by 3 weeks without treatment” value in the series on U87-luc xenografts (setting [7]) was “even further reduction”. Besides, in the series on U87-luc xenografts (all doses 1, 3, 6 and 10 mg/kg), the “Tumor weight after 3 weeks of treatment” value is given as “under 100 mg” and the “Luminescent signal intensity after 3 weeks of treatment” value is recorded as “under 100,000 p/s”. Further, in the series on U87-luc xenografts (all doses 1, 3, 6 and 10 mg/kg, control approximately 750 mg), the “Tumor weight after 3 weeks of treatment followed by 3 weeks off treatment” value was “further and additional reduction”. Further, the “Luminescent signal intensity after 3 weeks of treatment followed by 3 weeks off treatment” value in the series with U87-luc xenografts (all doses 1, 3, 6 and 10 mg/kg, control over 800,000p/s) is “further and additional reduction”. Also, the “Brain tissue uptake and retention over time” value in series [4] was “uptake and retention over a 24 hour period”.
On to bevacizumab [AVASTIN®], for which, in series [2] (VEGF alone), the “Anti-angiogenic effect in CAM Model against VEGF alone” value is recorded as “primarily effective against VEGF alone”. In series [2] (bFGF or HGF), the “Percent of angiogenesis in CAM Model for bFGF or HGF” value is recorded as “does not meaningfully reduce”. Further, in series [2] (bFGF or bFGF and HGF present along with VEGF), the “Anti-angiogenic effect in CAM Model, VEGF combined with other growth factors” value was “does not demonstrate good effect”.
